Results reported in patent US12655106B2 (Eikonizo Therapeutics, Inc., priority 2021, dated 2026).

What was measured:
Full length Human HDAC6 = molecular target: T1, Full length Human HDAC6 (Homo sapiens, UniProt Q9UBN7); assay: Caliper endpoint assay for HDAC enzymatic activity (HDAC6); assay type: biochemical; settings: for IC50: in vitro enzymatic, Caliper endpoint assay, 30 min pre-incubation, 1 μM substrate peptide; for Selectivity (6 v 8): ratio of HDAC8 IC50/HDAC6 IC50
T1 construct: Full length Human HDAC6; FLAG (C); host or cells: baculovirus expression system
T1 sequence (Q9UBN7 1-1215): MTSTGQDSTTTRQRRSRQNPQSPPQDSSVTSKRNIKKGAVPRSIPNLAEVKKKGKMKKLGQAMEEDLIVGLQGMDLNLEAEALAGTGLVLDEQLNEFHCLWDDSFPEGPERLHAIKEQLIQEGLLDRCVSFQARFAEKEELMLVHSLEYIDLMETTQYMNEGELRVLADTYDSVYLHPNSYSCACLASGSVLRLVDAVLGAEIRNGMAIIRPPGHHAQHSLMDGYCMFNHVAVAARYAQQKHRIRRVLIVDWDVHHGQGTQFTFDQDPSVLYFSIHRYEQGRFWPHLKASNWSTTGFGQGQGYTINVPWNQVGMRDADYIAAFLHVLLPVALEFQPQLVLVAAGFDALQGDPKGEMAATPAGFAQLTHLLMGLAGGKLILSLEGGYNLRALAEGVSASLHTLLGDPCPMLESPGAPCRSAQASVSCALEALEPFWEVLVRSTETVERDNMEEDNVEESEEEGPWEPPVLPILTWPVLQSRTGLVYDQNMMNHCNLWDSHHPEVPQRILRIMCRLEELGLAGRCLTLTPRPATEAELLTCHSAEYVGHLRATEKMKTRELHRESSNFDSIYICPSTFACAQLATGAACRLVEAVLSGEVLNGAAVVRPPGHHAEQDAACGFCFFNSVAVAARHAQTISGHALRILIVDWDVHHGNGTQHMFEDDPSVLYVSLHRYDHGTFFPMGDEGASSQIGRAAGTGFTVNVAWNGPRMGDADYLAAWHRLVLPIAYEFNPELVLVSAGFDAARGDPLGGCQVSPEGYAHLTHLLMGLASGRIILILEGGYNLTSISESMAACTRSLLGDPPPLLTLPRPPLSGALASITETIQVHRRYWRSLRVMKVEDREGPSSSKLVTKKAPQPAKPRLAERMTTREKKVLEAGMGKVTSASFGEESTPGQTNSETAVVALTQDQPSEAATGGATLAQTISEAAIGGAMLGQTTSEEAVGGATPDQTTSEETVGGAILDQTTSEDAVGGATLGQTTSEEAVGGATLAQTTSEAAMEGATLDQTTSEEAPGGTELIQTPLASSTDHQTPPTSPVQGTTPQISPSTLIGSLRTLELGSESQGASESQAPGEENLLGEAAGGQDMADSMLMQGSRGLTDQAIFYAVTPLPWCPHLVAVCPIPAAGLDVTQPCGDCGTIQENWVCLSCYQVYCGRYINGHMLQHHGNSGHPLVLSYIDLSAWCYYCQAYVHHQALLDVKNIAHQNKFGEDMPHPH

Full length Human HDAC8 = molecular target: T2, Full length Human HDAC8 (Homo sapiens, UniProt Q9BY41); assay: Caliper endpoint assay for HDAC enzymatic activity (HDAC8); assay type: biochemical; settings: in vitro enzymatic, 30 min pre-incubation, 1 μM substrate peptide
T2 construct: Full length Human HDAC8; HIS (N); host or cells: baculovirus expression system
T2 sequence (Q9BY41 1-377): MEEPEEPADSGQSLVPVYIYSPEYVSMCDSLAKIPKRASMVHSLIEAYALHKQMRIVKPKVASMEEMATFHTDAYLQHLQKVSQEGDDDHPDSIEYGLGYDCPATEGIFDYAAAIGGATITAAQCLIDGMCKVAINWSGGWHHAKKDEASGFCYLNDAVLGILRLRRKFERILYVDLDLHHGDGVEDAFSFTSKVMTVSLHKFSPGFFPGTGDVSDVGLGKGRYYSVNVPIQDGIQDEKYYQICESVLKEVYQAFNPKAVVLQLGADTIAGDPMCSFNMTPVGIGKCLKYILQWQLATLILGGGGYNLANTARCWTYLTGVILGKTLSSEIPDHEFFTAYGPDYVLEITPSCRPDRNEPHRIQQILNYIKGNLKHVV

SMILES | IC50 (Full length Human HDAC6) [nM] | Selectivity (6 v 8) (Full length Human HDAC6) | IC50 (Full length Human HDAC8) [nM]
O=C(NO)c1cc(F)c2c(c1)CCN1CCC[C@H]21 [Compound 80] | 100 to 1000 | III (III: >10-100) | 1000 to 10000
O=C(NO)c1ccc2c(c1)CCN1CCCC[C@@H]21 [Compound 89] | 1000 to 10000 | II (II: >1-10) | 1000 to 10000
O=C(NO)c1ccc2c(c1)CCN1CCCC[C@H]21 [Compound 90] | 1000 to 10000 | II (II: >1-10) | 1000 to 10000
O=C(NO)c1cc(F)c2c(c1)C[C@@H]1CCCCN1C2 [Compound 93] | 1 to 100 | IV (IV: >100-1000) | 1000 to 10000
O=C(NO)c1cc(F)c2c(c1)C[C@H]1CCCCN1C2 [Compound 94] | 100 to 1000 | III (III: >10-100) | 1000 to 10000
CN1Cc2cc(C(=O)NO)cc(F)c2CN1Cc1ccccc1 [Compound 118] | 1 to 100 | IV (IV: >100-1000) | 1000 to 10000
O=C(NO)c1cc(F)c2c(c1)C[C@H]1CCCN1C2 [Compound 120] | 1 to 100 | IV (IV: >100-1000) | 1000 to 10000
O=C(NO)c1ccc2c(c1)C[C@@H]1CCCN1C2 [Compound 121] | 100 to 1000 | III (III: >10-100) | 10000 to 100000
O=C(NO)c1ccc2c(c1)C[C@H]1CCCN1C2 [Compound 122] | 100 to 1000 | III (III: >10-100) | 1000 to 10000
O=C(NO)c1cc(F)c2c(c1)CN1CCC[C@H]1C2 [Compound 123] | 100 to 1000 | III (III: >10-100) | 1000 to 10000
O=C(NO)c1cc(F)c2c(c1)CN1CCC[C@@H]1C2 [Compound 124] | 1 to 100 | IV (IV: >100-1000) | 1000 to 10000
CC1(C)C[C@@H]2Cc3cc(C(=O)NO)cc(F)c3CN2C1 [Compound 126] | 100 to 1000 | III (III: >10-100) | 1000 to 10000
CC1(C)C[C@@H]2Cc3c(F)cc(C(=O)NO)cc3CN2C1 [Compound 127] | 1 to 100 | IV (IV: >100-1000) | 1000 to 10000
CC1(C)C[C@H]2Cc3c(F)cc(C(=O)NO)cc3CN2C1 [Compound 128] | 100 to 1000 | III (III: >10-100) | 1000 to 10000
O=C(NO)c1ccc2c(c1)C[C@@H]1COCCN1C2 [Compound 131] | 100 to 1000 | III (III: >10-100) | 1000 to 10000
O=C(NO)c1ccc2c(c1)C[C@H]1COCCN1C2 [Compound 132] | 1 to 100 | IV (IV: >100-1000) | 1000 to 10000
O=C(NO)c1ccc2c(c1)CN1CCCC[C@@H]1C2 [Compound 143] | 100 to 1000 | III (III: >10-100) | 1000 to 10000
O=C(NO)c1ccc2c(c1)CN1CCCC[C@H]1C2 [Compound 144] | 100 to 1000 | III (III: >10-100) | 10000 to 100000

SMILES | IC50 (Full length Human HDAC6) [nM] | Selectivity (6 v 8) (Full length Human HDAC6) | IC50 (Full length Human HDAC8) [nM]
O=C(NO)c1cc(F)c2c(c1)CN1CCCC[C@@H]1C2 [Compound 145] | 1 to 100 | IV (IV: >100-1000) | 10000 to 100000
O=C(NO)c1cc(F)c2c(c1)CN1CCCC[C@H]1C2 [Compound 146] | 100 to 1000 | III (III: >10-100) | 10000 to 100000
O=C(NO)c1ccc2c(c1)CCN1CCC[C@H]21 [Compound 148] | 1000 to 10000 | II (II: >1-10) | 1000 to 10000
O=C(NO)c1ccc2c(c1)CCN1CCC[C@@H]21 [Compound 149] | 100 to 1000 | II (II: >1-10) | 1000 to 10000
O=C(NO)c1ccc2c(c1)CN1CCC[C@H]21 [Compound 164] | 1000 to 10000 | II (II: >1-10) | 1000 to 10000
CC[C@H]1N(Cc2ccc(C(=O)NO)cc2F)CC12CCCC2 [Compound 169] | 1 to 100 |  | 1000 to 10000
O=C(NO)c1ccc(CN2C[C@H]3CC[C@@H]2CO3)c(F)c1 [Compound 173] | 1 to 100 |  | 1000 to 10000
O=C(NO)c1cc(F)c2c(c1)CCN(CC13CC4CC(CC(C4)N1)C3)C2 [Compound 176] | 1 to 100 | V (V: >1000) | 10000 to 100000
O=C(NO)c1cc(F)c2c(c1)CCN(C1CC3(CCOCC3)C1)C2 [Compound 179, 8-Fluoro-N-hydroxy-2-(7-oxaspiro[3.5]nonan-2-yl)-1,2,3,4-tetrahydroisoquinoline-6-carboxamide] | 1 to 100 | V (V: >1000) | > 100000
O=C(NO)c1cc(F)c2c(c1)CCN(C1CCC3(CCCCC3)CC1)C2 [Compound 182, 8-fluoro-2-spiro[5.5]undecan-3-yl-3,4-dihydro-1H-isoquinoline-6-carbohydroxamic acid] | 1 to 100 | IV (IV: >100-1000) | 10000 to 100000
O=C(NO)c1cc(F)c2c(c1)CCN(C1CC3(CCCC3)C1)C2 [Compound 183, 8-fluoro-N-hydroxy-2-(spiro[3.4]octan-2-yl)-1,2,3,4-tetrahydroisoquinoline-6-carboxamide] | 1 to 100 | V (V: >1000) | > 100000
O=C(NO)c1cc(F)c2c(c1)CCN(C1CCC3(CCC3)CC1)C2 [Compound 192, 8-fluoro-2-spiro[3.5]nonan-7-yl-3,4-dihydro-1H-isoquinoline-6-carbohydroxamic acid] | 1 to 100 | V (V: >1000) | 10000 to 100000
O=C(NO)c1cc(F)c2c(c1)CCN(C1CCC3(CCCC3)CC1)C2 [Compound 193, 8-fluoro-2-spiro[4.5]decan-8-yl-3,4-dihydro-1H-isoquinoline-6-carbohydroxamic acid] | 1 to 100 | V (V: >1000) | 10000 to 100000
O=C(NO)c1cc(F)c2c(c1)CCN(C1CC3(CCNCC3)C1)C2 [Compound 197, 2-(7-azaspiro[3.5]nonan-2-yl)-8-fluoro-3,4-dihydro-1H-isoquinoline-6-carbohydroxamic acid] | 1 to 100 | IV (IV: >100-1000) | 10000 to 100000
CN1CCC2(CC1)CC(N1CCc3cc(C(=O)NO)cc(F)c3C1)C2 [Compound 198, 8-fluoro-N-hydroxy-2-(7-methyl-7-azaspiro[3.5]nonan-2-yl)-1,2,3,4-tetrahydroisoquinoline-6-carboxamide] | 1 to 100 | IV (IV: >100-1000) | 10000 to 100000
CC(=O)N1CCC2(CC1)CC(N1CCc3cc(C(=O)NO)cc(F)c3C1)C2 [Compound 199, 2-(7-acetyl-7-azaspiro[3.5]nonan-2-yl)-8-fluoro-N-hydroxy-1,2,3,4-tetrahydroisoquinoline-6-carboxamide] | 1 to 100 | IV (IV: >100-1000) | 10000 to 100000
CC1(C)CC(N2CCc3cc(C(=O)NO)cc(F)c3C2)C1 [Compound 201, 2-(3,3-dimethylcyclobutyl)-8-fluoro-3,4-dihydro-1H-isoquinoline-6-carbohydroxamic acid] | 1 to 100 | V (V: >1000) | 10000 to 100000
O=C(NO)c1cc(F)c2c(c1)CN(CC13CC4CC(CC(C4)O1)C3)CC2 [Compound 213, 2-(((1r,3s,5R,7S)-2-oxaadamantan-1-yl)methyl)-5-fluoro-N-hydroxy-1,2,3,4-tetrahydroisoquinoline-7-carboxamide] | 1 to 100 | III (III: >10-100) | 100 to 1000
